Measurements: ChEMBL document CHEMBL3596090, “Discovery of novel pyrazole-containing benzamides as potent RORγ inverse agonists” (Bioorg Med Chem Lett, 2015)
Converted amounts (≈) assume the structure as drawn.

Columns and labels:
[1] = target: T1, Nuclear receptor ROR-gamma (Mus musculus, UniProt P51450); test: Inverse agonist activity at RORgamma in C57BL/6 mouse splenocytes assessed as reduction of IL-17 production after 2 days by ELISA; assay type: cell-based
T1 sequence (P51450 whole entry): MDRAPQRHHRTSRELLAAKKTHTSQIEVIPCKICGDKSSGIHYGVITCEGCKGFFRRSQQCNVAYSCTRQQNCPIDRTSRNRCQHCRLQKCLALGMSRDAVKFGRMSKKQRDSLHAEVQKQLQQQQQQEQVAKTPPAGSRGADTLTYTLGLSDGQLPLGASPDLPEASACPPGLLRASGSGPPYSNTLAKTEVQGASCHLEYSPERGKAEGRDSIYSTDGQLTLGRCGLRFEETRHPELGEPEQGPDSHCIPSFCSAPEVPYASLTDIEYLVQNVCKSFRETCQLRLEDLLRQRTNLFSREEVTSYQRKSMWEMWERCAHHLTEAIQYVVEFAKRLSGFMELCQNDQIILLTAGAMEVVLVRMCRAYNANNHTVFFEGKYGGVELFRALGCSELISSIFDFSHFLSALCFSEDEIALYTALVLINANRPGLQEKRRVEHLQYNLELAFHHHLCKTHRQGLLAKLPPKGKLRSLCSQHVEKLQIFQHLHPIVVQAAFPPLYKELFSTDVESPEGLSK

[2] = target: T2, Nuclear receptor ROR-gamma (Homo sapiens, UniProt P51449); test: Inverse agonist activity at RORgamma (unknown origin) transfected in HEK293T cells after 16 to 20 hrs by GAL4 luciferase reporter gene assay; assay type: functional, cell-based, HEK-293T
T2 sequence (P51449 whole entry): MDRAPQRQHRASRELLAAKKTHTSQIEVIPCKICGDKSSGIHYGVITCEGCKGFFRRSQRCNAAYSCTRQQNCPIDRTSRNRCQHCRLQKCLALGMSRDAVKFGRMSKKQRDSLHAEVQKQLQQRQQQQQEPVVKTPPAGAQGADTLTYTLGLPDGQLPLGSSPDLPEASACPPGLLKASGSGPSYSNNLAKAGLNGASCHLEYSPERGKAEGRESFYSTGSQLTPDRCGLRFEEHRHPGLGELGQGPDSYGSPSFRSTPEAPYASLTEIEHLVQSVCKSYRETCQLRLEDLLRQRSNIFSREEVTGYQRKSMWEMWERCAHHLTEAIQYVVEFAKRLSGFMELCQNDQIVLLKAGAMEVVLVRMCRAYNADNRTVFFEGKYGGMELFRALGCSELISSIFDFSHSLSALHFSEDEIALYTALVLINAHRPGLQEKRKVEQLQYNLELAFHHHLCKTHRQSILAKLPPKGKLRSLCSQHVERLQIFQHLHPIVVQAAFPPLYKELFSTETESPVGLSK

[3] = Percentage unbound in rat plasma; assay type: ADME, cell-free
[4] = target: T2, Nuclear receptor ROR-gamma; test: Binding affinity to GST-tagged RORgamma LBD (unknown origin) assessed as inhibition of interaction with co-activatior peptide TRAP220 preincubated for 1 hr followed by TRAP220 addition by FRET analysis
[5] = AUC in po dosed rat; assay type: ADME, organism-based; details: in vivo
[6] = Kinetic aqueous solubility of the compound; assay type: physicochemical; details: buffer; read-out: Kinetic_solubility
[7] = Percentage unbound in human plasma; assay type: ADME, cell-free
[8] = AUC (0 to 7 hrs) in rat at 10 mg/kg, po; assay type: ADME, organism-based; set-up: time < 7 hr, dose 10 mg/kg, route oral; details: in vivo
[9] = target: T3, Nuclear receptor ROR-beta (Homo sapiens, UniProt Q92753); test: Inverse agonist activity at RORbeta (unknown origin)
T3 sequence (Q92753 whole entry): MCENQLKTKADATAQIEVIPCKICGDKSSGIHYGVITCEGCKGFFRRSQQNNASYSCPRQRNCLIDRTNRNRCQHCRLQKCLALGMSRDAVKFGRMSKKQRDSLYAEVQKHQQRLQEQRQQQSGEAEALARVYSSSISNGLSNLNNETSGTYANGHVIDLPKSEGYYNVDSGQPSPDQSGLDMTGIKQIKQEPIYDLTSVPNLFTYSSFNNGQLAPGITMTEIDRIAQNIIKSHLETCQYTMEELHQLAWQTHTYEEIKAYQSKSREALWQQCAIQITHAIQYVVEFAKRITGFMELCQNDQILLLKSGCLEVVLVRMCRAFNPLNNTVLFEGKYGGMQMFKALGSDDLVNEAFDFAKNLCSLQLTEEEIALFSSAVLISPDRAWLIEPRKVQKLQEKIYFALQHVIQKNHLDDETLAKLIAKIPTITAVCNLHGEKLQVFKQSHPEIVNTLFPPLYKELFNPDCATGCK

[10] = target: T4, Nuclear receptor ROR-alpha (Homo sapiens, UniProt P35398); test: Inverse agonist activity at RORalpha (unknown origin)
T4 sequence (P35398 whole entry): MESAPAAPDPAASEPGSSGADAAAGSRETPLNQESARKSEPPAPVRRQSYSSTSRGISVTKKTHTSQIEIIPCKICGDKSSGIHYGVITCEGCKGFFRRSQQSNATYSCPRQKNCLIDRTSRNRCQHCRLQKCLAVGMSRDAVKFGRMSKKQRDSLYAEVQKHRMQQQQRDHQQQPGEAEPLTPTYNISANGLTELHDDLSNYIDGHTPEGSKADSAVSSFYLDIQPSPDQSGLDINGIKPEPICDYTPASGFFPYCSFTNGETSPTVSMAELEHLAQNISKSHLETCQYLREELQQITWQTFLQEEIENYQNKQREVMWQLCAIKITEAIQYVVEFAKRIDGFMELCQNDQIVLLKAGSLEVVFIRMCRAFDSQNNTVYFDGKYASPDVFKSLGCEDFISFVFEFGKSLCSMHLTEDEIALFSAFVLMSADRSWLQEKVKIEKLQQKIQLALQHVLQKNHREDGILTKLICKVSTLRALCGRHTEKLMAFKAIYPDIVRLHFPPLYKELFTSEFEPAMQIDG

[11] = target: T5, Nuclear receptor subfamily 1 group I member 2 (Homo sapiens, UniProt O75469); test: Activation of PXR (unknown origin)
T5 sequence (O75469 whole entry): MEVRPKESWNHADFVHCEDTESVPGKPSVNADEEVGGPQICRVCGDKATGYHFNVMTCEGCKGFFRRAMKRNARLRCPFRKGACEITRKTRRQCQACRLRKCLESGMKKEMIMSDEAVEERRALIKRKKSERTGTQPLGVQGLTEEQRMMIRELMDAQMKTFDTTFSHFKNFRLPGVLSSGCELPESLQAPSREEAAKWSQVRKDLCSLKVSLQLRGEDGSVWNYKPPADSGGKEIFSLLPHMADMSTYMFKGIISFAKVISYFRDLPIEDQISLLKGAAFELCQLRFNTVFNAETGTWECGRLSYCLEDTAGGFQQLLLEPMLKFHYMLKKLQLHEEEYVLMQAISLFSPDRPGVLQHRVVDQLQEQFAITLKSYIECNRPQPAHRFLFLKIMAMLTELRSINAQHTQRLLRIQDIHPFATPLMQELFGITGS

[12] = AUC in mouse at 25 mg/kg, po; assay type: ADME, organism-based; details: in vivo

Row | EC50 [1] | EC50 [2] | fraction unbound [3] | IC50 [4] | AUC [5] | solubility kinetic [6] | fraction unbound [7] | AUC(0-t) at 7 h [8] | EC50 [9] | EC50 [10] | EC50 [11] | AUC [12] | SMILES
1 | 0.895 µM | 0.098 µM | 0.002 | 0.029 µM | 3130 ng·h/mL | 0.3 µg/mL (≈ 0.579 µM) | 0.003 | – | – | – | – | – | [2H]C([2H])([2H])N(C(=O)c1c(F)cccc1Cl)c1ccc(-c2cc(C(N)=O)ccc2Cl)cc1OCC(F)(F)F
2 | 0.038 µM | – | 0.002 | – | – | 2.1 µg/mL (≈ 4.09 µM) | 0.014 | 1040 ng·h/mL | 1.3 µM | 1.6 µM | 9.9 µM | 2830 ng·h/mL | [2H]C([2H])([2H])N(C(=O)c1c(F)cccc1Cl)c1ccc(-c2cc(NC(C)=O)nn2C(C)C)cc1N1CC2CC2C1 (configuration not stated)
3 | 0.034 µM | – | 0.013 | – | – | 37.4 µg/mL (≈ 72.9 µM) | 0.076 | 927 ng·h/mL | 2.3 µM | 9.3 µM | 5.4 µM | 2260 ng·h/mL | CC(=O)Nc1cc(-c2cnc(N(C)C(=O)c3c(F)cccc3Cl)c(N3CCCCC3)c2)n(C(C)C)n1
4 | – | > 1 µM | – | > 5 µM | – | – | – | – | – | – | – | – | CC(=O)Nc1nc(-c2cnc(N(C)C(=O)c3c(F)cccc3Cl)c(N3CCCCC3)c2)n(C(C)C)n1
